Results from patent publication US20250034182A1, “PHOSPHOLIPID COMPOUNDS AND METHODS OF MAKING AND USING THE SAME” (priority 2021, published 2025).

Experiments:
Format in all cases: cell-based
[1] = test system: Recombinant Respiratory Syncytial virus strain A2 containing the firefly luciferase reporter (RSV-Fluc) in NHBE cells; test: RSV NHBE FLuc EC50 (Example I); conditions: human respiratory syncytial virus, 72 h, read-out: RSV NHBE FLuc EC50 (nM) (per Ex. I)
From the text: Normal human bronchial epithelial (NHBE) cells are purchased from Lonza (Walkersville, MD Cat #CC-2540) and maintained in Bronchial Epithelial Cell Growth Medium (BEGM) (Lonza, Walkersville, MD, Cat #CC-3170) with all provided supplements in the BulletKit. Cells are passaged 2-3 times per week to maintain sub-confluent densities and are used for experiments at passages 2-4.
Recombinant Respiratory Syncytial virus strain A2 containing the firefly luciferase reporter between the P and M genes (RSV-Fluc, 6.3×10^6 TCID50/mL) is purchased from Viratree (Durham, NC, Cat #R^145).
NHBE cells (5×10^3/well) are seeded in 100 μL white wall/clear bottom 96-well plates (Corning) with culture medium and are incubated for 24 hours at 37° C. with 5% CO2. On the following day, three-fold serial dilutions of compounds prepared in DMSO are added to the wells using the HP D300e digital dispenser with normalization to the highest concentration of DMSO in all wells. The cells are then infected with RSV-Fluc diluted with BEGM media at an MOI of 0.1 for a final volume of 200 μL media/well. Uninfected and untreated wells are included as controls to determine compound efficacy against RSV-Fluc. Following incubation with compound and virus for three days at 37° C. with 5% CO2, 100 μL of culture supernatant is removed from each well and replaced with 100 μL of ONE-Glo luciferase reagent (Promega, Madison, WI, Cat #E6110). The plates are gently mixed by rocking for 10 minutes at 21° C. and luminescence signal is measured using an Envision plate reader (PerkinElmer). Values are normalized to the uninfected and infected DMSO controls (0% and 100% infection, respectively). Non-linear regression analysis is applied to determine the compound concentration at which 50% luminescence signal is reduced (EC50) using the XLfit4 add-in for MICROSOFT®EXCEL®. All experiments are performed in duplicate with two technical repeats each.

[2] = test system: Respiratory syncytial virus recombinant with luciferase (RSV-Luc5) in HEp-2 cells; test: HEp-2 RSV-Luc5 384-well assay (EC50 RSVFLUC Hep2-384, Example R); conditions: human respiratory syncytial virus, HEp-2, 72 h, read-out: RSV Hep-2 FLuc EC50 (nM) (per Ex. R)
From the text: (§1) HEp-2 cell line was purchased from ATCC (Manassas, VA Cat #CCL-23) and maintained in Dulbecco's […] (DMEM) (Corning, New York, NY, Cat #15-018CM) supplemented with 10% fetal bovine serum (FBS) (Hyclone, Logan, UT, Cat #SH30071-03) and 1× Penicillin-Streptornycin-L-Glutamine (Corning, New York, NY, Cat #30-009-CI). Cells were passaged 2 times per week to maintain sub-confluent densities and were used for experiments at passage 5-20. Respiratory syncytial virus recombinant with luciferase (RSV-Luc5) direct pelleted virus (≥1×107 TCID50/ml) was purchased from Microbiologics (Saint Cloud, MN). Viral replication was determined in HEp-2 cells in the following manner.
Compounds are prepared in 384-well polypropylene plates (Greiner, Monroe, NC, Cat #784201) with 8 compounds per plate in grouped replicates of 4 at 10 serially diluted concentrations (1:3).
HEp-2 cells were suspended in DMEM (supplemented with 10% FBS and 1×Penicillin-Streptonycin-L-Glutimine) and 60 μL of 4,000 cells per well were seeded into 384-well plates (Greiner, Monroe, NC, Cat #781080) using Biotek MultiFlo dispenser. After overnight incubation at 37° C. and 5% CO2, 0.4 uL of three-fold serial dilutions of compound was added to each well using a Biomek FX pipette station. RSV-Luc5 viruses were diluted in DMEM (supplemented with 10% FBS and 1× Penicillin-Streptonycin-L-Glutainie) at an MOI=0.5. Virus suspension was added to each 384-well compound plate at 20 uL per well using a Biotek MultiFlo dispenser. The assay plates were incubated for 3 days at 37° C. and 5% CO2. At the end of incubation, One-Glo reagent (Promega, Madison, WI, Cat #E6120) was prepared. The assay plate and the reagent were equilibrated to room temperature for 30 minutes. 50 uL per well of medium was removed from assay plate and 40 uL per well of One-Glo reagent was added to each plate by Biomek FX. The plates were sat at room temp for 15 minutes. Viral replication was then assessed by measuring luminescence signal using and Envision plate reader. Remdesivir was used as positive control and DMSO was used as negative control. Values were normalized to the positive and negative controls (as 0% and 100% replication, respectively) and data was fitted using non-linear regression analysis by Gilead's dose response tool. The EC50 value for each compound was then determined as the concentration reducing the viral replication by 50%.

[3] = test system: Respiratory syncytial virus recombinant with luciferase (RSV-Luc5) in HEp-2 cells; test: HEp-2 RSV-Luc5 384-well assay (EC50 RSVFLUC Hep2-384 v2, Example V); conditions: human respiratory syncytial virus, HEp-2, 72 h, read-out: RSV Hep-2 FLuc EC50 (v2) (nM) (per Ex. V)
From the text: as §1, with “Penicillin-Streptonycin-L-Glutamine” for “Penicillin-Streptornycin-L-Glutamine”, “(RSV-Luc5)” for “(RSV-Luc5) direct pelleted virus”
Compounds are prepared in 100% DMSO in 384-well polypropylene plates (Greiner, Monroe, NC, Cat #784201) with 8 compounds per plate in grouped replicates of 4 at 10 serially diluted concentrations (1:3). The serially diluted compounds were transferred to low dead volume Echo plates (Labcyte, Sunnyvale, CA, Cat #LP-0200).
The test compounds were spotted to 384-well assay plates (Greiner, Monroe, NC, Cat #781091) at 200 nL per well. HEp-2 cells were harvested and suspended in DMEM (supplemented with 10% FBS and 1× Penicillin-Streptomycin-L-Glutamine) and seeded to the pre-spotted assay plates at 4,000 cells per well in 30 μL. RSV-Luc5 viruses were diluted in DMEM (supplemented with 10% FBS and 1× Penicillin-Streptomycin-L-Glucamine) at 200,000 Infectious Units (IU) per mL and 10 μL per well was added to the assay plates containing cells and compounds, for an MOI=0.5. The assay plates were incubated for 3 days at 37° C. and 5% CO2. At the end of incubation, One-Glo reagent (Promega, Madison, WI, Cat #E6120) was prepared. The assay plates and One-Glo reagent were equilibrated to room temperature for at least 15 minutes. 40 μL per well of One-Glo reagent was added and the plates were incubated at room temp for 15 minutes before reading the luminescence signal on an EnVision multimode plate reader (Perkin Elmer, Waltham, MA). Remdesivir was used as positive control and DMSO was used as negative control. Values were normalized to the positive and negative controls (as 0% and 100% replication, respectively) and data was fitted using non-linear regression analysis by Gilead's dose response tool. The EC50 value for each compound was then determined as the concentration reducing the viral replication by 50%.

[4] = RSV HEP2-CC50-384-V2 (per Ex. V); conditions: human

| Compound | EC50 [1] [nM] | EC50 [2] [nM] | EC50 [3] [nM] | CC50 at 3 days [4] [nM] |
| --- | --- | --- | --- | --- |
| CCCCCCCCCCCCCCCCCCOC[C@@H](COP(=O)(O)OC[C@@]1(C#N)O[C@@H](c2ccc3c(N)ncnn23)[C@H](O)[C@@H]1O)OCc1ccc(C#N)cc1OC [Compound 67, ((2R,3S,4R)-5-(4-aminopyrrolo[2,1-f][1,2,4]triazin-7-yl)-2-cyano-3,4-dihydroxytetrahydrofuran-2-yl)methyl ((S)-2-((4-cyano-2-methoxybenzyl)oxy)-3-(octadecyloxy)propyl) hydrogen phosphate] | 28 | 229 |  |  |
| CCCCCCCCCCCCCCCCCCC[C@H](COP(=O)(O)OC[C@@]1(C#N)O[C@@H](c2ccc3c(N)ncnn23)[C@H](O)[C@@H]1O)OCc1ccc(C#N)c(OC)c1 [Compound 27, ((2R,3S,4R)-5-(4-aminopyrrolo[2,1-f][1,2,4]triazin-7-yl)-2-cyano-3,4-dihydroxytetrahydrofuran-2-yl)methyl ((R)-2-((4-cyano-3-methoxybenzyl)oxy)henicosyl) hydrogen phosphate] | 42 | 232 |  |  |
| CCCCCCCCCCCCCCCCCCOC[C@H](COP(=O)(O)OC[C@@]1(C#N)O[C@@H](c2ccc3c(N)ncnn23)[C@H](O)[C@@H]1O)OCc1ccc(OC)c(C#N)c1 [Compound 9, ((2R,3S,4R,5S)-5-(4-aminopyrrolo[2,1-f][1,2,4]triazin-7-yl)-2-cyano-3,4-dihydroxytetrahydrofuran-2-yl)methyl ((R)-2-((3-cyano-4-methoxybenzyl)oxy)-3-(octadecyloxy)propyl) hydrogen phosphate] |  | 53 | 145 | > 48500 |
| CCCCCCCCCCCCCCCCCCOC[C@H](COP(=O)(O)OC[C@@]1(C#N)O[C@@H](c2ccc3c(N)ncnn23)[C@H](O)[C@@H]1O)Oc1cccc(C#N)c1 [Compound 50, ((2R,3S,4R,5S)-5-(4-aminopyrrolo[2,1-f][1,2,4]triazin-7-yl)-2-cyano-3,4-dihydroxytetrahydrofuran-2-yl)methyl ((R)-2-(3-cyanophenoxy)-3-(octadecyloxy)propyl) hydrogen phosphate] | 18 | 12 | 91 | > 50000 |
| CCCCCCCCCCCCCCCCCCOC[C@H](COP(=O)(O)OC[C@@]1(C#N)O[C@@H](c2ccc3c(N)ncnn23)[C@H](O)[C@@H]1O)OCc1cncc(C#N)c1 [Compound 66, ((2R,3S,4R)-5-(4-aminopyrrolo[2,1-f][1,2,4]triazin-7-yl)-2-cyano-3,4-dihydroxytetrahydrofuran-2-yl)methyl ((R)-2-((5-cyanopyridin-3-yl)methoxy)-3-(octadecyloxy)propyl) hydrogen phosphate] | 50 | 21 | 56 | 49100 |
| CCCCCCCCCCCCCCOC[C@H](COP(=O)(O)OC[C@@]1(C#N)O[C@@H](c2ccc3c(N)ncnn23)[C@H](O)[C@@H]1O)Oc1ccc(C#N)nc1 [Compound 77, ((2R,3S,4R)-5-(4-aminopyrrolo[2,1-f][1,2,4]triazin-7-yl)-2-cyano-3,4-dihydroxytetrahydrofuran-2-yl)methyl ((R)-2-((6-cyanopyridin-3-yl)oxy)-3-(tetradecyloxy)propyl) hydrogen phosphate] | 12 | 222 | 90 | > 50000 |
